These molecules were tested on Respiratory Syncytial Virus (assay: In vitro screening for activity against Respiratory Syncytial Virus (MTT tetrazolium colorimetric assay, HeLa cells)). Settings: activity category; protection against RSV cytopathology in HeLa cells, 7 days after infection.
Type: cell-based
From the text: The percent protection against cytopathology caused by viruses (antiviral activity or EC50) achieved by tested compounds and their cytotoxicity (CC50) are both calculated from dose-response curves. The selectivity of the antiviral effect is represented by the selectivity index (SI), calculated by dividing the CC50 (cytotoxic dose for 50% of the cells) by the EC50 (antiviral activity for 50% of the cells). The tables in the above experimental part list the category to which each of the prepared compounds belong. Compounds belonging to activity category “A” have an pEC50 (−log of EC50 when expressed in molar units) equal to or more than 7. Compounds belonging to activity category “B” have a pEC50 value between 6 and 7.
Automated tetrazolium-based […] assays were used for determination of EC50 and CC50 of test compounds. Flat-bottom, 96-well plastic microtiter trays were filled with 180 μl of Eagle's Basal Medium, supplemented with 5% FCS (0% for FLU) and 20 mM Hepes buffer. Subsequently, stock solutions (7.8× final test concentration) of compounds were added in 45 μl volumes to a series of triplicate wells so as to allow simultaneous evaluation of their effects on virus- and mock-infected cells. Five five-fold dilutions were made directly in the microtiter trays using a robot system. Untreated virus controls, and HeLa cell controls were included in each test. Approximately 100 TCID50 of Respiratory Syncytial Virus was added to two of the three rows in a volume of 50 μl. The same volume of medium was added to the third row to measure the cytotoxicity of the compounds at the same concentrations as those used to measure the antiviral activity. After two hours of incubation, a suspension (4×10^5 cells/ml) of HeLa cells was added to all wells in a volume of 50 μl. The cultures were incubated at 37° C. in a 5% CO2 atmosphere. Seven days after infection the cytotoxicity and the antiviral activity was examined spectrophotometrically. To each well of the microtiter tray, 25 μl of a solution of MTT (3-(4,5-dimethylthiazol-2-yl)-2,5-diphenyltetrazolium bromide) was added. The trays were further incubated at 37° C. for 2 hours, after which the medium was removed from each cup. Solubilization of the formazan crystals was achieved by adding 100 μl 2-propanol. Complete dissolution of the formazan crystals were obtained after the trays have been placed on a plate shaker for 10 min. Finally, the absorbances were read in an eight-channel computer-controlled photometer (Multiskan MCC, Flow Laboratories) at two wavelengths (540 and 690 nm). The absorbance measured at 690 nm was automatically subtracted from the absorbance at 540 nm, so as to eliminate the effects of non-specific absorption.
In the case of `CCOC(=O)c1ccc2nc(NC3CCNCC3)n(Cc3nc(C)ccc3O)c2c1` [Compound 141], the Activity is reported as “C (pEC50 value equal to or below 6)”.
`CCOC(=O)c1ccc2nc(NC3CCN(Cc4ccccc4)CC3)n(Cc3nc(C)ccc3O)c2c1` [Compound 142] was tested, and the Activity was “C (pEC50 value equal to or below 6)”.

Same assay, conditions: human respiratory syncytial virus, 168 h; protection against RSV cytopathology in HeLa cells, 7 days after infection; pEC50 = −log of EC50 in molar units
For `Cc1cccc(C(=O)Nc2ccc3nc(NC4CCN(C)CC4)n(Cc4nc(C)ccc4O)c3c2)c1` [Compound 65, N-[3-(3-hydroxy-6-methyl-pyridin-2-yl-methyl)-2-(1-methyl-piperidin-4-ylamino)-3H-benzoimidazol-5-yl]-3-methyl-benzamide], the EC50 was 63.1 nM.

Same assay, conditions: protection against RSV cytopathology in HeLa cells, 7 days after infection; pEC50 = −log of EC50 in molar units
`Cc1cc(C)cc(NCc2cc(C)c3nc(NC4CCN(CCO)CC4)n(Cc4nc(C)ccc4O)c3c2)c1` [Compound 172] gave an Activity of 8.5.
Molecule `Cc1ccc(O)c(Cn2c(NC3CCN(C)CC3)nc3ccc(NC(=O)c4cccnc4)cc32)n1` [Compound 114] has an Activity of 5.2.
In the case of `Cc1ccc(O)c(Cn2c(NC3CCN(C)CC3)nc3ccc(CNc4ccc(Cl)cc4Cl)cc32)n1` [Compound 70], the Activity is reported as 7.2.
Work on `Cc1ccc(O)c(Cn2c(NC3CCN(C)CC3)nc3ccc(CNc4ccc(F)cc4)cc32)n1` [Compound 26] yielded an Activity of 7.9.
`Cc1cccc(NCc2ccc3nc(NC4CCN(Cc5ccccc5)CC4)n(Cc4nc(C)ccc4O)c3c2)c1` [Compound 167] was tested, and the Activity was 6.8.
`Cc1ccc(O)c(Cn2c(NC3CCN(C)CC3)nc3cc(NC(=O)Cc4ccccn4)ccc32)n1` [Compound 113] gave an Activity of 5.5.
`CCN(CCO)Cc1ccc2nc(NC3CCN(C)CC3)n(Cc3nc(C)ccc3O)c2c1` [Compound 111] gave an Activity of 5.6.
In the case of `Cc1ccc(O)c(Cn2c(NC3CCN(C)CC3)nc3ccc(CNc4cccc(Oc5ccccc5)c4)cc32)n1` [Compound 66], the Activity is reported as 7.2.
`Cc1cc(C)cc(N(CCN(C)C)Cc2ccc3nc(NC4CCN(C)CC4)n(Cc4nc(C)ccc4O)c3c2)c1` [Compound 5] showed an Activity of 8.5.
`Cc1ccc(O)c(Cn2c(NC3CCN(C)CC3)nc3ccc(CNc4ccc(C(C)C)cc4)cc32)n1` [Compound 76] showed an Activity of 7.
`Cc1ccc(O)c(Cn2c(NC3CCN(C)CC3)nc3ccc(C(O)c4ccccc4)cc32)n1` (stereo not drawn) [Compound 86] showed an Activity of 6.8.
In the case of `Cc1ccc(O)c(Cn2c(NC3CCN(C)CC3)nc3ccc(CNc4ccc(C#N)cc4)cc32)n1` [Compound 12], the Activity is reported as 8.2.
Molecule `Cc1ccc(O)c(Cn2c(NC3CCN(C)CC3)nc3ccc(CNCCN4CCOCC4)cc32)n1` [Compound 117] has an Activity of 5.1.
`Cc1cccc(/C=C/c2ccc3c(c2)nc(NC2CCN(CCN)CC2)n3Cc2nc(C)ccc2O)c1.Cl` [Compound 147] gave an Activity of 8.8.
In the case of `Cc1ccc(O)c(Cn2c(NC3CCN(C)CC3)nc3ccc(/C=C/c4ccc(Cl)cc4)cc32)n1` [Compound 126], the Activity is reported as less than 4.
`Cc1ccc(O)c(Cn2c(NC3CCN(C)CC3)nc3cc(C(=O)NCCc4ccccc4)ccc32)n1` [Compound 120] was tested, and the Activity was 4.6.
Molecule `Cc1ccc(O)c(Cn2c(NC3CCN(C)CC3)nc3cc(CNc4ccccc4)ccc32)n1` [Compound 131] has an Activity of less than 4.
In the case of `Cc1ccc(O)c(Cn2c(NC3CCN(C)CC3)nc3ccc(CNc4c(C)cccc4C(C)C)cc32)n1` [Compound 82], the Activity is reported as 6.9.
In the case of `CCOC(=O)c1cccc(NCc2ccc3nc(NC4CCN(C)CC4)n(Cc4nc(C)ccc4O)c3c2)c1` [Compound 57], the Activity is reported as 7.3.
Molecule `Cc1ccc(O)c(Cn2c(NC3CCN(C)CC3)nc3ccc(CNc4ccc(Br)cc4C)cc32)n1` [Compound 63] has an Activity of 7.3.
In the case of `COc1cc(NCc2ccc3nc(NC4CCN(C)CC4)n(Cc4nc(C)ccc4O)c3c2)cc(OC)c1` [Compound 36], the Activity is reported as 7.7.
In the case of `CCc1cccc(C)c1NCc1ccc2nc(NC3CCN(C)CC3)n(Cc3nc(C)ccc3O)c2c1` [Compound 47], the Activity is reported as 7.5.
For `Cc1ccc(O)c(Cn2c(NC3CCN(C)CC3)nc3ccc(CNc4cc(C)c(C)cc4S)cc32)n1` [Compound 91], the Activity was 6.7.
`Cc1ccc(O)c(Cn2c(NC3CCN(C)CC3)nc3ccc(CNc4ccccc4-c4ccccc4)cc32)n1` [Compound 42] gave an Activity of 7.6.
Work on `Cc1ccc(O)c(Cn2c(NC3CCN(C)CC3)nc3ccc(CNc4ccc(Br)cc4Cl)cc32)n1` [Compound 89] yielded an Activity of 6.8.
Molecule `CCc1cccc(CC)c1NCc1ccc2nc(NC3CCN(C)CC3)n(Cc3nc(C)ccc3O)c2c1` [Compound 52] has an Activity of 7.4.
`Cc1ccc(O)c(Cn2c(NC3CCN(C)CC3)nc3ccc(NCc4ccccc4)cc32)n1` [Compound 56] gave an Activity of 7.3.
In the case of `Cc1cc(C)cc(NCc2ccc3nc(NCC4COC(C)(C)O4)n(Cc4nc(C)ccc4O)c3c2)c1` (stereo not drawn) [Compound 184], the Activity is reported as less than 4.
`Cc1cc(C)cc(N(CCO)Cc2ccc3nc(NC4CCN(C)CC4)n(Cc4nc(C)ccc4O)c3c2)c1` [Compound 1] was tested, and the Activity was 9.4.
`Cc1ccc(O)c(Cn2c(NC3CCN(C)CC3)nc3ccc(CN(Cc4cnc[nH]4)c4ccc(Cl)cc4)cc32)n1` [Compound 27] was tested, and the Activity was 7.9.
Work on `Cc1ccc(O)c(Cn2c(NC3CCN(CCO)CC3)nc3ccc(CCc4ccccc4)cc32)n1` [Compound 162] yielded an Activity of 7.5.
Molecule `Cc1ccc(O)c(Cn2c(NC3CCN(C)CC3)nc3ccc(CO)cc32)n1` [Compound 92] has an Activity of 6.6.
Molecule `Cc1ccc(O)c(Cn2c(NC3CCN(C)CC3)nc3ccc(CNc4cccc(C(N)=O)c4)cc32)n1` [Compound 58] has an Activity of 7.3.
`Cc1ccc(O)c(Cn2c(NCCCN3CCCCC3)nc3ccc(CO)cc32)n1` [Compound 177] was tested, and the Activity was 7.1.
`Cc1ccc(O)c(Cn2c(NC3CCN(C)CC3)nc3ccc(CNc4cccc(Br)c4)cc32)n1` [Compound 6] was tested, and the Activity was 8.4.
`Cc1ccc(NCc2ccc3nc(NC4CCN(C)CC4)n(Cc4nc(C)ccc4O)c3c2)cc1` [Compound 37] gave an Activity of 7.7.
With `Cc1ccc(O)c(Cn2c(NC3CCN(C)CC3)nc3ccc(CNc4ccccc4)cc32)n1` [Compound 30] the Activity was 7.8.
With `Cc1ccc(O)c(Cn2c(NC3CCN(CCC(N)=O)CC3)nc3cc(C=Cc4ccccc4)ccc32)n1` [Compound 166] the Activity was 6.8.
`Cc1cccc(/C=C/c2ccc3c(c2)nc(NC2CCN(C)CC2)n3Cc2nc(C)ccc2O)c1` [Compound 104] showed an Activity of 6.2.
With `Cc1ccc(O)c(Cn2c(NC3CCN(C)CC3)nc3ccc(CNc4c(F)cccc4F)cc32)n1` [Compound 46] the Activity was 7.5.
`C#Cc1cccc(NCc2ccc3nc(NC4CCN(C)CC4)n(Cc4nc(C)ccc4O)c3c2)c1` [Compound 13] gave an Activity of 8.1.
With `Cc1ccc(O)c(Cn2c(NC3CCN(C)CC3)nc3ccc(CNc4ccc5c(c4)OCCO5)cc32)n1` [Compound 32] the Activity was 7.8.
Work on `Cc1ccc(/C=C/c2ccc3nc(NC4CCN(C)CC4)n(Cc4nc(C)ccc4O)c3c2)cc1` [Compound 128] yielded an Activity of less than 4.
`Cc1ccc(O)c(Cn2c(NC3CCN(C)CC3)nc3ccc(CNc4ccc5c(c4)CCC5)cc32)n1` [Compound 45] was tested, and the Activity was 7.5.
Work on `Cc1ccc(O)c(Cn2c(NC3CCN(CCC(N)=O)CC3)nc3cc(CCc4ccccc4)ccc32)n1` [Compound 170] yielded an Activity of 5.7.
`Cc1ccc(O)c(Cn2c(NC3CCN(C)CC3)nc3ccc(CNc4ccc(F)c(F)c4)cc32)n1` [Compound 50] showed an Activity of 7.4.
Molecule `Cc1ccc(O)c(Cn2c(NC3CCN(C)CC3)nc3ccc(CCc4ccccc4)cc32)n1` [Compound 29] has an Activity of 7.8.
With `Cc1ccc(O)c(Cn2c(NC3CCN(C)CC3)nc3ccc(CNc4ccccc4C(N)=O)cc32)n1` [Compound 14] the Activity was 8.1.
`Cc1ccc(O)c(Cn2c(NCCCN3CCN(C)CC3)nc3cc(CO)ccc32)n1` [Compound 183] gave an Activity of 5.
For `Cc1ccc(O)c(Cn2c(NC3CCN(C)CC3)nc3ccc(CNc4cccc(F)c4)cc32)n1` [Compound 18], the Activity was 7.9.
For `Cc1ccc(O)c(Cn2c(NC3CCN(C)CC3)nc3ccc(/C=C/c4ccccc4)cc32)n1` [Compound 99], the Activity was 6.4.
`Cc1ccc(O)c(Cn2c(NC3CCN(C)CC3)nc3ccc(C(=O)Nc4ccccc4)cc32)n1` [Compound 112] showed an Activity of 5.5.
With `Cc1ccc(O)c(Cn2c(NC3CCN(C)CC3)nc3ccc(CNc4ccc(Br)cc4)cc32)n1` [Compound 38] the Activity was 7.7.
In the case of `Cc1ccc(/C=C/c2ccc3c(c2)nc(NC2CCN(C)CC2)n3Cc2nc(C)ccc2O)cc1` [Compound 125], the Activity is reported as less than 4.

Source: patent US8278455B2, “5- or 6-substituted benzimidazole derivatives as inhibitors of respiratory syncytial virus replication” (Janssen Pharmaceutica N.V., priority 2003, dated 2012)
